Experimental data published in US5955100A, “Prodrugs their preparation and use as pharmaceuticals” (priority 1992, dated 1999).

Legend:
[1] = Baba et al., Gann 69, 1978; cited from earlier work
[2] = Plasma half-life after i.v. injection, liposomal and free prodrug; assay type: in vivo, CD1 nu/nu mice
[3] = tested on: Salmonella typhimurium antigen (STA) induced foot swelling; assay: Delayed Type Hypersensitivity (DTH), 24 h foot swelling; assay type: in vivo, mouse
Text: c) DTH model in the mouse
The effect of 14-O-[4-(beta-D-glucuronyloxy)-3nitrobenzylaminocarbonyl]doxorubicin (prodrug) on inflammation was investigated in a model of delayed type cutaneous reaction (Delayed Type Hypersensitivity, DTH) corresponding to the method described by Collins and Mackaness (J. Immunol. 101: 830-845,1968).
In this model, mice were immunized with a defined amount of killed Salmonella typhimurium bacteria (109) twice at an interval of one week. Three. weeks after the first immunization a DTH reaction was provoked by intraplantar injection of a Salmonella typhimurium antigen (STA). A local inflammatory infiltrate which was composed of granulocytes, macrophages, lymphocytes and accumulated interstitial fluid developed. The extent of the reaction was measured by the increase in foot swelling 24 hours after provocation of the reaction. The effect of the prodrug on the inflammatory reaction was tested with two treatment schemes. One group received a single intravenous administration of 500 mg/kg prodrug 2 hours after the STA injection, and another group received three injections of, in each case, 300 mg/kg prodrug at times 2, 5 and 8 hours after the STA injection.

[4] = tested on: human colon tumors (LoVo); assay: Inhibition of growth of human colon tumors (LoVo) growing subcutaneously in the nude mouse; assay type: in vivo, human tumor in nude mouse; details: for T/C: 1 × i.v., d0
Experimental: The tested human tumors are routinely maintained and passaged in nude mice. The tumors are tested for human characteristics by immunohistochemistry using monoclonal antibodies at each 3rd passage. The tumor is removed under sterile conditions and cut into small pieces of about 5-10 mm^3. One piece of tumor is implanted subcutaneously into the side of each nude mouse. After about 7-14 days, the piece of tumor is adherent to the surrounding tissue, and the tumor size A is determined with the aid of a calliper rule and measurement of two opposite diameters (a, b) by the following formula: […]
After another measurement of the tumor size carried out at an interval of 3 days, the animals are randomized to the control group and to the groups to be treated (6 animals in each group). Only animals in which a progressive tumor growth was found are used for this. Starting with the day of randomization ([…]), the animals are treated with the test substances in accordance with the scheme indicated below. Twice a week the two tumor diameters are measured for each mouse, and the individual tumor areas are calculated in accordance with the abovementioried formula.
After completion of the experiment, the relative tumor sizes for each individual animal on the particular measurement day are calculated by the formula: Ar =A(day X) /A(day 0). The median for the treated group (AT) is then related to the median for the relative control tumor size (AC), and T/C%=AT /AC […] is calculated. The statistical significance of the antitumor effect is determined with the aid of the Wilcoxon U test.

[5] = Acute toxicity in nude mice (LD50, survival on day 14); details: mouse, in vivo, iv, nude mice (CD-1, nu/nu), 5 min infusion
Experimental: To determine the acute toxicity, nude mice (CD-1, nu/nu) were infused on day 0 with various doses of the test substance dissolved in 0.5 ml of 5% glucose solution over a period of 5 minutes. Control groups receive merely 0.5 ml of 5% glucose solution. 5 mice are used per concentration of the test substance. The number of mice surviving on day 14 is determined, and the Litchfield Wilcoxon method is used to determine the LD50.

[6] = tested on: human tumor xenografts (ovarian, breast, stomach, lung and bowel carcinomas); assay: Prodrug activation/monotherapy in human tumor xenografts; assay type: in vivo, human tumor in nude mouse
Text: It was possible to show by means of a histochemical test (Murray et al., the journal of histochemistry and cytochemistry 37, 643-652, 1989) for determining. functional human β-glucuronidase that functionally active human .rho.-glucuronidase is present within the necrosis; i.e. cells whose cytoplasmic membrane has already been damaged still contain functionally active β-glucuronidase in the cytoplasm. This human β-glucuronidase which is localized in the necrosis and is not protected by the cytoplasmic membrane brings about the cleavage of the hydrophilic prodrug to the drug in the LoVo tumor.

[7] = tested on: EAE; assay: EAE model; assay type: in vivo
Text: Schorlemmer et al., Drugs Exptl. Clin. Res. XVII (10/11) 461-469 (1991)

[8] = tested on: adjuvant arthritis; assay: Adjuvant arthritis in the rat; assay type: in vivo
Text: b) Adjuvant arthritis in the rat

[9] = tested on: mouse mammary carcinoma; details: ten i.v. administrations and glucose acidification; treatment started 24 h after implantation; cited from earlier work
[10] = butyric acid liberated from prodrugs in vivo; cited from earlier work

O=c1[nH]cc(F)c(=O)[nH]1 [Compound 5-FU, 5-fluorouracil]
LD50 [1]: 200 mg/kg

COc1cccc2c1C(=O)c1c(O)c3c(c(O)c1C2=O)C[C@@](O)(C(=O)COC(=O)NCc1ccc(O[C@@H]2O[C@H](C(=O)O)[C@@H](O)[C@H](O)[C@H]2O)c([N+](=O)[O-])c1)C[C@@H]3O[C@H]1C[C@H](N)[C@H](O)[C@H](C)O1 [Compound 8, 14-O-[4-(Beta-D-glucuronyloxy)-3-nitrobenzylaminocarbonyl]doxorubicin]
half-life ([2]; mouse, plasma, iv, free prodrug, CD1 nu/nu mice (data not shown)): ~20 min | increase in plasma half-life after protein preincubation ([2]; preincubation with 50 g/l human serum albumin or human acid alpha-1 glycoprotein): less distinct increase in the plasma half-life | 24 h foot swelling ([3]; 300 mg/kg, 3 × i.v. (t = +2, +5, +8 h), marked xx): 1.1 ± 1.3 | 24 h foot swelling ([3]; 500 mg/kg, 1 × i.v. (t = +2 h), mean ± spread, marked x): 3.5 ± 3.9 | effect by comparison with standard therapy ([3]; DTH): superior effect | reduction in the inflammatory reaction ([3]; both prodrug treatment schemes): significant reduction in the inflammatory reaction | effect compared with ibuprofen ([3]; three administrations of prodrug (300 mg/kg)): slightly superior to the standard therapy | T/C ([4]; 500 mg/kg, listed as Prodrug): 40.0% | T/C ([4]; 500 mg/kg, listed as prodrug): ~ 40% | efficacy compared with fusion protein in combination with prodrug ([4]; LoVo, prodrug alone): as effective as in the group which received fusion protein in combination with prodrug | statistical significance (p) of difference to doxorubicin treatment ([4]; tumor growth, vs doxorubicin treatment): < 0.05 | LD50 at 336 h [5]: > 1500 mg/kg | effect of prodrug monotherapy on tumors without significant necrosis ([6]; non-necrotic tumors (data not shown)): cannot be treated by prodrug monotherapy | endogenous activation by central necrosis ([6]; ovarian, breast, stomach, lung and bowel carcinoma xenografts): confirmed in a large number of human tumor xenografts

CC(OC(=O)OCc1ccc(O[C@@H]2O[C@H](C(=O)O)[C@@H](O)[C@H](O)[C@H]2O)c([N+](=O)[O-])c1)=C(C#N)C(=O)Nc1ccc(C(F)(F)F)cc1 [Compound 22, 4-(β-D-Glucuronyloxy)-3-nitrobenzyl 2-[1-cyano-1-(N-4-trifluoromethylphenyl)carbamoyl]propen-1-yl carbonate]
activity by comparison with the active substance (Leflunomide) [7]: superior activity | activity by comparison with the active substance (Leflunomide) [8]: superior activity

COc1cccc2c1C(=O)c1c(O)c3c(c(O)c1C2=O)C[C@@](O)(C(=O)CO)C[C@@H]3O[C@H]1C[C@H](N)[C@H](O)[C@H](C)O1 [Doxorubicin, doxorubicin, reference compound]
T/C ([4]; 12 mg/kg): 78.4% | T/C ([4]; 12 mg/kg, listed as doxorubicin): ~ 80%

O=C(O)[C@H]1O[C@@H](Oc2nc(=O)[nH]cc2F)[C@H](O)[C@@H](O)[C@@H]1O [FUOG, 5-fluorouracil O-.rho.-D-glucuronide]
effect on mouse mammary carcinoma [9]: distinct effect

CC(C)Cc1ccc(C(C)C(=O)O)cc1 (stereo not shown) [Ibuprofen, ibuprofen, reference compound]
24 h foot swelling ([3]; 200 mg/kg, 1 × p.o. (t = 0), marked xx): 1.7 ± 2.2

CCCC(=O)O [butyric acid]
therapeutic effects compared with cisplatin [10]: inferior to those of a standard cytostatic (cisplatin)
